Measurements from PubChem BioAssay (NCI).
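Interpolation was linear, between the two tested concentrations surrounding the appropriate level; five concentrations were tested over 48 hours in 96-well plates. The concentration for 50% growth inhibition is given as GI50. The concentration for full growth arrest is given as TGI.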

Legend:
Test in all cases: inhibition of tumour cell growth, NCI panel, 48 h
SK-OV-3 ovarian = test system: SK-OV-3 ovarian
HCC-2998 colon = test system: HCC-2998 colon
HT29 colon = test system: HT29 colon
MCF7 breast = test system: MCF7 breast
UO-31 renal = test system: UO-31 renal
UACC-257 melanoma = test system: UACC-257 melanoma
NCI/ADR-RES ovarian = test system: NCI/ADR-RES ovarian
SR leukemia = test system: SR leukemia
IGROV1 ovarian = test system: IGROV1 ovarian
OVCAR-4 ovarian = test system: OVCAR-4 ovarian

SMILES | GI50 (SK-OV-3 ovarian) | TGI (SK-OV-3 ovarian) | GI50 (HCC-2998 colon) | TGI (HCC-2998 colon) | GI50 (HT29 colon) | TGI (HT29 colon) | GI50 (MCF7 breast) | TGI (MCF7 breast) | GI50 (UO-31 renal) | TGI (UO-31 renal) | GI50 (UACC-257 melanoma) | TGI (UACC-257 melanoma) | GI50 (NCI/ADR-RES ovarian) | TGI (NCI/ADR-RES ovarian) | GI50 (SR leukemia) | TGI (SR leukemia) | GI50 (IGROV1 ovarian) | TGI (IGROV1 ovarian) | GI50 (OVCAR-4 ovarian) | TGI (OVCAR-4 ovarian)
COc1ncnc(C2CC2)c1-c1ncc2cnn(Cc3ccc(-c4nc(C(F)(F)F)cn4C(C)C)cc3)c2n1 | 36.8 µM | > 100 µM | 23.3 µM | > 100 µM | 17.9 µM | > 100 µM | 17.3 µM | 57.4 µM | 3.25 µM | 36.7 µM | 18.4 µM | 58.8 µM | 15.6 µM | 82.6 µM | 19.7 µM | > 100 µM | 21.1 µM | > 100 µM | 14.2 µM | 75.6 µM
Cn1cc(C2=C(c3ccc4ccccc4c3)C(=O)NC2=O)c2ccccc21 | > 25 µM | > 25 µM | > 25 µM | > 25 µM | 9.87 µM | > 25 µM | 2.19 µM | > 25 µM | > 12.4 µM | > 25 µM | > 25 µM | > 25 µM | > 23.9 µM | > 25 µM | 3.11 µM | > 25 µM | > 19.5 µM | > 25 µM | > 25 µM | > 25 µM
Ic1ccc(Nc2nc3nonc3nc2Nc2ccc(I)cc2)cc1 | 0.23 µM | 0.741 µM | 0.326 µM | > 100 µM | 0.265 µM | > 100 µM | 0.225 µM | > 100 µM | – | – | 0.2 µM | 0.772 µM | 0.313 µM | > 100 µM | – | – | 0.46 µM | > 100 µM | 0.246 µM | > 100 µM
CNCCCn1cc(C2=C(c3cn(C)c4ccccc34)C(=O)NC2=O)c2ccccc21 | 4.26 µM | 22.5 µM | 5.13 µM | 11.7 µM | 1.14 µM | 12.2 µM | 2.74 µM | 6.93 µM | 3.58 µM | 11.8 µM | 4.57 µM | 8.81 µM | 14.1 µM | 25 µM | 3.94 µM | 16.2 µM | 5.41 µM | 11.4 µM | 3.06 µM | 14.1 µM
O=C(Nc1ccc(OS(=O)(=O)c2ccccc2)cc1)C12CC3CC(CC(C3)C1)C2 | > 100 µM | > 100 µM | 5.48 µM | > 100 µM | 0.403 µM | 3.69 µM | 3.26 µM | > 100 µM | 18.7 µM | > 100 µM | 13.5 µM | > 100 µM | 5.75 µM | > 100 µM | 3.6 µM | > 100 µM | > 100 µM | > 100 µM | 8.38 µM | > 100 µM
O=Cc1cc2c(cc1-c1c(C=O)ccc3c1OCO3)OCO2 | – | > 10 µM | – | > 10 µM | – | > 10 µM | – | > 10 µM | – | – | – | > 10 µM | – | > 10 µM | – | > 10 µM | – | > 10 µM | – | > 10 µM
COCCOc1cc(F)c2c(Nc3ccc(NC(=O)Cn4cc(C(C)C)nn4)cc3)ncnc2c1 | – | – | > 100 µM | > 100 µM | > 100 µM | > 100 µM | > 100 µM | > 100 µM | > 100 µM | > 100 µM | > 100 µM | > 100 µM | > 100 µM | > 100 µM | – | – | > 100 µM | > 100 µM | 19.2 µM | > 100 µM
Cc1nnc(S(=O)(=O)c2ccc(N=Nc3c(N)nc(N)nc3N)cc2)s1 | – | > 100 µM | – | – | – | > 100 µM | – | > 100 µM | – | > 100 µM | – | > 100 µM | – | > 100 µM | – | > 100 µM | – | > 100 µM | – | > 100 µM
O=S(=O)([O-])c1ccc2c(c1)-c1nc-2nc2[n-]c(nc3nc(nc4[n-]c(n1)c1ccc(S(=O)(=O)[O-])cc41)-c1cc(S(=O)(=O)[O-])ccc1-3)c1ccc(S(=O)(=O)[O-])cc21.[Cu+2].[Na+] | 97.9 µM | > 100 µM | > 100 µM | > 100 µM | 3.32 µM | > 100 µM | > 100 µM | > 100 µM | > 39.6 µM | > 93.9 µM | > 100 µM | > 100 µM | – | – | 11.2 µM | > 100 µM | > 100 µM | > 100 µM | 5.31 µM | > 80.4 µM
C=C(C)[C@@]12OC3(/C=C/C=C/CCCCC)O[C@@H]1[C@@H]1[C@@H]4O[C@]4(CO)[C@@H](O)[C@]4(O)C(=O)C(C)=C[C@H]4[C@@]1(O3)[C@H](C)[C@H]2OC(=O)c1ccccc1 | 2.44 µM | 4.9 µM | < 0.01 µM | 1.8 µM | 1.4 µM | 2.94 µM | 1.55 µM | 3.31 µM | 0.0221 µM | 1.85 µM | 8.13 µM | 21.5 µM | 3.13 µM | 8.9 µM | – | – | 1.62 µM | 3.18 µM | 1.91 µM | 3.82 µM
C[As](C)SC1OC(CO)C(O)C1O (stereo not drawn) | 6.42 µM | 22.4 µM | – | – | 0.668 µM | > 100 µM | 0.324 µM | 1.3 µM | 0.0973 µM | 0.555 µM | 1.72 µM | 13.6 µM | 0.825 µM | 5.75 µM | 0.213 µM | 3.13 µM | 1.32 µM | 6.56 µM | 1.69 µM | 16.3 µM
CC1OC2CC(=O)OC2C2=C1C(=O)c1c(O)cccc1C2=O (stereo not drawn) | 1.34 µM | 2.67 µM | 0.236 µM | 0.558 µM | 0.0312 µM | 0.113 µM | 0.0183 µM | 0.0581 µM | 0.0725 µM | 0.23 µM | 0.0748 µM | 0.217 µM | 0.0892 µM | 0.646 µM | – | – | 0.0508 µM | 0.112 µM | 0.113 µM | 0.253 µM
Clc1ccc2c(NCCCNc3nccc(Nc4ccc(Br)cc4)n3)ccnc2c1 | 1.55 µM | 2.91 µM | 1.5 µM | 2.93 µM | 1.26 µM | 2.67 µM | 1.39 µM | 2.94 µM | 1.52 µM | 3.01 µM | 1.87 µM | 3.4 µM | 1.79 µM | 3.42 µM | – | – | – | – | 1.39 µM | 2.75 µM
